How the values were obtained:
Assay in all cases: relative viability (nuclei count vs DMSO), 5 days (fraction); higher = more cells survive
JZL-184 + Bortezomib = compound: C1CN(CCC1C(C2=CC3=C(C=C2)OCO3)(C4=CC5=C(C=C4)OCO5)O)C(=O)OC6=CC=C(C=C6)[N+](=O)[O-] [JZL-184] + CC(C)C[C@H](NC(=O)[C@H](Cc1ccccc1)NC(=O)c1cnccn1)B(O)O [Bortezomib] (partner 0.002 µM)
In short: (§1)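 Dosing by pin tool came one day after lung cancer cell lines were seeded in 1536-well plates, using either one drug or a fixed anchor-drug dose plus five library-drug doses (not always all listed) in √10 steps. After 5 days, nuclei were counted on 4× images. Relative viability is treated-well nuclei count divided by vehicle-well nuclei count, and values are medians of duplicate plates.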

JZL-184 + Luminespib = compound: C1CN(CCC1C(C2=CC3=C(C=C2)OCO3)(C4=CC5=C(C=C4)OCO5)O)C(=O)OC6=CC=C(C=C6)[N+](=O)[O-] [JZL-184] + CCNC(=O)c1noc(-c2cc(C(C)C)c(O)cc2O)c1-c1ccc(CN2CCOCC2)cc1 [Luminespib] (partner 0.01 µM)
In short: as §1

JZL-184 + Foretinib = compound: C1CN(CCC1C(C2=CC3=C(C=C2)OCO3)(C4=CC5=C(C=C4)OCO5)O)C(=O)OC6=CC=C(C=C6)[N+](=O)[O-] [JZL-184] + COc1cc2c(Oc3ccc(NC(=O)C4(C(=O)Nc5ccc(F)cc5)CC4)cc3F)ccnc2cc1OCCCN1CCOCC1 [Foretinib] (partner 0.25 µM)
In short: as §1

JZL-184 + Tozasertib = compound: C1CN(CCC1C(C2=CC3=C(C=C2)OCO3)(C4=CC5=C(C=C4)OCO5)O)C(=O)OC6=CC=C(C=C6)[N+](=O)[O-] [JZL-184] + Cc1cc(Nc2cc(N3CCN(C)CC3)nc(Sc3ccc(NC(=O)C4CC4)cc3)n2)n[nH]1 [Tozasertib] (partner 0.1 µM)
In short: as §1

JZL-184 + Vorinostat = compound: C1CN(CCC1C(C2=CC3=C(C=C2)OCO3)(C4=CC5=C(C=C4)OCO5)O)C(=O)OC6=CC=C(C=C6)[N+](=O)[O-] [JZL-184] + O=C(CCCCCCC(=O)Nc1ccccc1)NO [Vorinostat] (partner 1 µM)
In short: as §1

Cell Line	relative viability (JZL-184 + Bortezomib; first compound 0.04 µM)	relative viability (JZL-184 + Bortezomib; first compound 0.4 µM)	relative viability (JZL-184 + Bortezomib; first compound 1.265 µM)	relative viability (JZL-184 + Bortezomib; first compound 4 µM)	relative viability (JZL-184 + Luminespib; first compound 0.04 µM)	relative viability (JZL-184 + Luminespib; first compound 0.4 µM)	relative viability (JZL-184 + Luminespib; first compound 1.265 µM)	relative viability (JZL-184 + Luminespib; first compound 4 µM)	relative viability (JZL-184 + Foretinib; first compound 0.04 µM)	relative viability (JZL-184 + Foretinib; first compound 0.4 µM)	relative viability (JZL-184 + Foretinib; first compound 1.265 µM)	relative viability (JZL-184 + Foretinib; first compound 4 µM)	relative viability (JZL-184 + Tozasertib; first compound 0.04 µM)	relative viability (JZL-184 + Tozasertib; first compound 0.4 µM)	relative viability (JZL-184 + Tozasertib; first compound 1.265 µM)	relative viability (JZL-184 + Tozasertib; first compound 4 µM)	relative viability (JZL-184 + Vorinostat; first compound 0.04 µM)	relative viability (JZL-184 + Vorinostat; first compound 0.4 µM)	relative viability (JZL-184 + Vorinostat; first compound 1.265 µM)	relative viability (JZL-184 + Vorinostat; first compound 4 µM)
201T	1.14	1.04	1.07	1.07	1.05	1.05	1.04	1.03	1.15	1.09	1.15	1.11	1.02	0.981	0.988	0.862	0.995	0.983	1.01	0.902
A-427	1.05	0.965	1	0.918	1.14	0.79	1.11	0.972	1.06	1.03	1.33	0.972	0.194	0.186	0.264	0.239	0.871	0.829	0.83	0.754
ABC-1	0.336	0.352	0.375	0.247	1.23	0.557	0.628	0.495	1.23	0.986	1.12	1.09	0.195	0.202	0.174	0.164	1.59	0.961	1.42	0.929
BEN	0.912	0.711	0.942	0.799	0.421	0.318	0.67	0.281	0.666	0.772	0.78	0.846	0.513	0.536	0.506	0.456	0.538	0.524	0.538	0.594
